Results as given in patent US20040242452A1, “Perfume composition” (priority 2001, published 2004).
Entries after “also recorded” stand apart in the source; their conditions may differ.

Assays:
healthy female panelists [1] = assay: CNV test (contingent negative variation) with inhaled scent samples; assay type: in vivo, human; conditions: for psycho-sedative / psycho-stimulative effect by measured CNV values (FIG. 1): scent inhaled about 10 cm under the nose, five healthy female panelists, CNV area relative to blank (100%): 100% or less sedative, 100% or more arousal
Excerpt: The psycho-sedative effect was investigated by measuring negative changes in electric potential, so-called contingent negative variation (CNV). CNV is known to be a slow cerebral potential variation which relates to psychological processes such as alertness, expectation, and anticipation and to changes in the level of consciousness.
In order to screen out a compound having a psycho-sedative or psycho-stimulative effect, a light signal which indicates start of movement is emitted two seconds after stimulation with a warning sound, and a panelist is required to react (i.e., push a button) simultaneously with the recognition of the light. During repetition of a series of such processes, an aromatic product sample is arranged about 10 cm under the nose of the panelist so that its scent can be acknowledged with breathing. An electrode for the measurement of CNV is set on the forehead of the panelist so as to record electric potential between the forehead and an earlobe. It has already been reported that the CNV amplitude increases when caffeine having an arousal effect is perorally administered to humans, whereas the amplitude decreases when nitrazepam having a sedative effect is allowed to be […].
In this test, the psycho-sedative effect was evaluated by use of the percentage as an index. A relative area of 100% or less indicates a sedative effect, and a relative area of 100% or more indicates an arousal effect.
Five healthy female panelists were subjected to the aforementioned CNV test.
Five healthy female adult panelists were subjected to the aforementioned CNV test.
(B) The following samples were prepared: a 1% ethanol solution of perilla aldehyde (commercial product); a 1% ethanol solution of perilla alcohol (commercial product); a 1% ethanol solution of DMMB (commercial product); and a 1% ethanol solution of lemon oil (commercial product). Five healthy female adult panelists were subjected to the aforementioned CNV test.
The following samples were prepared: a 0.05% ethanol solution of solo perilla aldehyde (1); a 0.05% ethanol solution of solo perilla alcohol (2); and an ethanol solution containing perilla aldehyde (0.05%) and perilla alcohol (0.05%) (3). Five healthy female adult panelists were subjected to the aforementioned CNV test.

[2] = disclosed in Japanese Patent Application Laid-Open (kokai) No. 6-172781; also through inhalation of vaporized perfume; cited from earlier work
healthy female panelists [3] = conditions: already reported; humans; caffeine perorally administered, nitrazepam allowed to be inhaled; cited from earlier work
[4] = 1% ethanol solution, five healthy female adult panelists, CNV area relative to blank (100%)

Row | Molecule | psycho-sedative / psycho-stimulative effect by measured CNV values (FIG. 1) (healthy female panelists [1]; 1% ethanol solution) | other results
1 | COc1cc(C)cc(OC)c1 [DMMB, 1,3-dimethoxy-5-methylbenzene, reference compound] | – | psycho-stimulative / psycho-sedative effect by measured CNV values (FIG. 2) (healthy female panelists [1]; [4]): psycho-sedative effect of DMMB was confirmed; sedative effect [2]: has a sedative effect
2 | CC(=O)C1(C)CC2=C(CCCC2(C)C)CC1C (centres unmarked) [Iso E Super] | psycho-sedative effect similar to that of DMMB | –
3 | CC/C=C\CCOC(=O)c1ccccc1O [Z-3-hexenyl salicylate, cis-3-hexenyl salicylate] | psycho-sedative effect similar to that of DMMB | –
4 | CC=Cc1ccc(OC(C)=O)c(OC)c1 [acetyl isoeugenol, methoxy-4-acetoxypropenylbenzene] | psycho-sedative effect similar to that of DMMB | –
5 | Cn1c(=O)c2c(ncn2C)n(C)c1=O [caffeine] | – | CNV amplitude change (healthy female panelists [3]): increases
6 | CC1=CCC2C(=O)C1C2(C)C (centres unmarked) [chrysanthenone] | psycho-sedative effect similar to that of DMMB | –
7 | CC(C)=CCCC(C)CCO (centres unmarked) [citronellol] | psycho-sedative effect similar to that of DMMB | –
8 | CC(C)c1ccc(CO)cc1 [cuminyl alcohol, 4-isopropylbenzyl alcohol] | – | psycho-stimulative / psycho-sedative effect by measured CNV values (FIG. 2) (healthy female panelists [1]; [4]): psycho-stimulative effect similar to that of limone oil
9 | CCCCCCCCCCCCCC(=O)OCC [ethyl myristate, ethyl tetradecanoate] | – | psycho-stimulative / psycho-sedative effect by measured CNV values (FIG. 2) (healthy female panelists [1]; [4]): psycho-stimulative effect similar to that of limone oil
10 | CC(C)=CCC/C(C)=C/CO [geraniol] | psycho-sedative effect similar to that of DMMB | –
11 | CC(=O)OC/C=C(\C)CCC=C(C)C [geranyl acetate] | psycho-sedative effect similar to that of DMMB | –
12 | CCCCCC1C(=O)CCC1CC(=O)OC (centres unmarked) [hedione, methyl dihydrojasmonate] | psycho-sedative effect similar to that of DMMB | –
13 | CC(C=O)Cc1ccc2c(c1)OCO2 (centres unmarked) [helional] | psycho-sedative effect similar to that of DMMB | –
14 | C/C=C(/C)C(=O)OCCC(C)C [isoamyl angelate, isoamyl(Z)-2-methyl-2-butenoate] | – | psycho-stimulative / psycho-sedative effect by measured CNV values (FIG. 2) (healthy female panelists [1]; [4]): psycho-stimulative effect similar to that of limone oil
15 | CC(C=O)Cc1ccc(C(C)(C)C)cc1 (centres unmarked) [lilial] | psycho-sedative effect similar to that of DMMB | –
16 | C=C(C)[C@H]1CC=C(C)CC1 [limonene] | psycho-sedative effect similar to that of DMMB | –
17 | C=CC(C)(O)CCC=C(C)C (centres unmarked) [linalool] | psycho-sedative effect similar to that of DMMB | –

Row | Molecule | psycho-sedative / psycho-stimulative effect by measured CNV values (FIG. 1) (healthy female panelists [1]; 1% ethanol solution) | other results
18 | C=CC(C)(CCC=C(C)C)OC(C)=O (centres unmarked) [linalyl acetate] | psycho-sedative effect similar to that of DMMB | –
19 | CC(C)(O)CCCC1=CCC(C=O)CC1 (centres unmarked) [lyral] | psycho-sedative effect similar to that of DMMB | –
20 | CC1=C2CCC(C)CC2OC1=O (centres unmarked) [menthalactone, 3,6-dimethyl-5,6,7,7a-tetrahydro-2(4H)-benzofuranone] | – | psycho-stimulative / psycho-sedative effect by measured CNV values (FIG. 2) (healthy female panelists [1]; [4]): psycho-stimulative effect similar to that of limone oil
21 | COC(=O)c1ccc(OC)cc1 [methyl anisate] | psycho-sedative effect similar to that of DMMB | –
22 | CC(C)=CCC/C(C)=C\CO [nerol] | psycho-sedative effect similar to that of DMMB | –
23 | O=C1CN=C(c2ccccc2)c2cc([N+](=O)[O-])ccc2N1 [nitrazepam] | – | CNV amplitude change (healthy female panelists [3]): decreases
24 | C=CC(C)=CCC=C(C)C [ocimene] | psycho-sedative effect similar to that of DMMB | –
25 | Cc1ccc(CC=O)cc1 [p-methylphenylacetaldehyde] | psycho-sedative effect similar to that of DMMB | –
26 | C=C(C)C1CC=C(C=O)CC1 (centres unmarked) [perilla aldehyde, dihydrocuminyl aldehyde] | – | synergistic psycho-stimulative effect by measured CNV values (FIG. 4) (healthy female panelists [1]; 0.05% ethanol solution of each component, solo or combined, five healthy female adult panelists): acknowledged to have a psycho-stimulative effect; psycho-stimulative effect by measured CNV values (FIG. 3) (healthy female panelists [1]; [4]): acknowledged to have a psycho-stimulative effect; also recorded: remarkably strong psycho-stimulative effect as compared with lemon oil
27 | C/C=C(/C)C(=O)OCCc1ccccc1 [phenylethyl angelate, 2-phenylethyl(Z)-2-methyl-2-butenoate] | – | psycho-stimulative / psycho-sedative effect by measured CNV values (FIG. 2) (healthy female panelists [1]; [4]): psycho-stimulative effect similar to that of limone oil
28 | CC1=CC(=O)C(C(C)C)CC1 (centres unmarked) [piperitone, p-menth-1-en-3-one] | – | psycho-stimulative / psycho-sedative effect by measured CNV values (FIG. 2) (healthy female panelists [1]; [4]): psycho-stimulative effect similar to that of limone oil
29 | OCCc1ccccc1 [β-phenylethyl alcohol] | psycho-sedative effect similar to that of DMMB | –
30 | CCC1CCC(=O)O1 (centres unmarked) [γ-hexalactone] | psycho-sedative effect similar to that of DMMB | –
31 | CC(=O)/C(C)=C/C1C(C)=CCCC1(C)C (centres unmarked) [γ-methyl ionone] | psycho-sedative effect similar to that of DMMB | –
32 | CCCCCC1CCC(=O)O1 (centres unmarked) [γ-nonalactone] | psycho-sedative effect similar to that of DMMB | –
33 | terpinyl butyrate | psycho-sedative effect similar to that of DMMB | –
